From PubChem BioAssay (NCI)
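GI50: concentration for 50% inhibition of growth. TGI denotes the concentration required for complete inhibition of growth.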

Columns and labels:
Experiment in all cases: DTP human tumour cell line panel, 384-well format
[1] = tested on: 786-0 renal
[2] = tested on: A498 renal
[3] = tested on: A549 NSCLC
[4] = tested on: ACHN renal
[5] = tested on: BT-549 breast
[6] = tested on: CAKI-1 renal
[7] = tested on: CCRF-CEM leukemia
[8] = tested on: COLO 205 colon
[9] = tested on: DU-145 prostate
[10] = tested on: EKVX NSCLC
[11] = tested on: HCC-2998 colon
[12] = tested on: HCT-116 colon
[13] = tested on: HCT-15 colon
[14] = tested on: HL-60(TB) leukemia
[15] = tested on: HOP-62 NSCLC
[16] = tested on: HOP-92 NSCLC
[17] = tested on: HS 578T breast
[18] = tested on: HT29 colon
[19] = tested on: IGROV1 ovarian
[20] = tested on: K-562 leukemia
[21] = tested on: KM12 colon
[22] = tested on: LOX IMVI melanoma
[23] = tested on: M14 melanoma
[24] = tested on: MALME-3M melanoma
[25] = tested on: MCF7 breast
[26] = tested on: MDA-MB-435 melanoma
[27] = tested on: MDA-MB-468 breast
[28] = tested on: MOLT-4 leukemia
[29] = tested on: NCI-H226 lung
[30] = tested on: NCI-H23 lung
[31] = tested on: NCI-H322M lung
[32] = tested on: NCI-H460 NSCLC
[33] = tested on: NCI-H522 lung
[34] = tested on: NCI/ADR-RES ovarian
[35] = tested on: OVCAR-3 ovarian
[36] = tested on: OVCAR-4 ovarian
[37] = tested on: OVCAR-8 ovarian
[38] = tested on: PC-3 prostate
[39] = tested on: RPMI-8226 leukemia
[40] = tested on: RXF 393 renal
[41] = tested on: SF-268 CNS
[42] = tested on: SF-295 CNS
[43] = tested on: SF-539 CNS
[44] = tested on: SK-MEL-2 melanoma
[45] = tested on: SK-MEL-28 melanoma
[46] = tested on: SK-MEL-5 melanoma
[47] = tested on: SK-OV-3 ovarian
[48] = tested on: SN12C renal
[49] = tested on: SNB-19 CNS
[50] = tested on: SNB-75 CNS
[51] = tested on: SW-620 colon
[52] = tested on: TK-10 renal
[53] = tested on: U251 glioblastoma
[54] = tested on: UACC-257 melanoma
[55] = tested on: UACC-62 melanoma
[56] = tested on: MDA-MB-231 breast
[57] = tested on: OVCAR-5 ovarian
[58] = tested on: SR leukemia
[59] = tested on: T-47D breast
[60] = tested on: UO-31 renal

CCOC(=O)CCC(NC(=O)C(Cc1ccc(N(CCCl)CCCl)cc1)NC=O)C(=O)OCC (stereo not given)
GI50 [1]: 1340 nM | TGI [1]: 2.91 µM | GI50 [2]: 5.47 µM | TGI [2]: 26.6 µM | GI50 [3]: 5.77 µM | TGI [3]: 27.5 µM | GI50 [4]: 446 nM | TGI [4]: 1.88 µM | GI50 [5]: 12.1 µM | TGI [5]: 27.5 µM | GI50 [6]: 463 nM | TGI [6]: 2140 nM | GI50 [7]: 131 nM | TGI [7]: 281 nM | GI50 [8]: 602 nM | TGI [8]: 2.38 µM | GI50 [9]: 2420 nM | TGI [9]: 5.42 µM | GI50 [10]: 18.9 µM | TGI [10]: 41.6 µM | GI50 [11]: 712 nM | TGI [11]: 13.9 µM | GI50 [12]: 4130 nM | TGI [12]: 24.3 µM | GI50 [13]: 4.54 µM | TGI [13]: 16.8 µM | GI50 [14]: 33.5 nM | TGI [14]: 138 nM | GI50 [15]: 1720 nM | TGI [15]: 4.13 µM | GI50 [16]: 1.02 µM | TGI [16]: 3.49 µM | GI50 [17]: 2580 nM | TGI [17]: 14.3 µM | GI50 [18]: 3.71 µM | TGI [18]: 16.6 µM | GI50 [19]: 1.37 µM | TGI [19]: 5.37 µM | GI50 [20]: 13.1 µM | TGI [20]: 27.8 µM | GI50 [21]: 15 µM | TGI [21]: 36.3 µM | GI50 [22]: 2690 nM | TGI [22]: 13.2 µM | GI50 [23]: 449 nM | TGI [23]: 1.4 µM | GI50 [24]: 1.03 µM | TGI [24]: 2.22 µM | GI50 [25]: 4060 nM | TGI [25]: 25.9 µM | GI50 [26]: 3.19 µM | TGI [26]: 8.84 µM | GI50 [27]: 339 nM | TGI [27]: 763 nM | GI50 [28]: 32.2 nM | TGI [28]: 113 nM | GI50 [29]: 1710 nM | TGI [29]: 10.9 µM | GI50 [30]: 1120 nM | TGI [30]: 2.99 µM | GI50 [31]: 13.8 µM | TGI [31]: 30.1 µM | GI50 [32]: 566 nM | TGI [32]: 2.91 µM | GI50 [33]: 729 nM | TGI [33]: 2.11 µM | GI50 [34]: 8.38 µM | TGI [34]: 21.2 µM | GI50 [35]: 1140 nM | TGI [35]: 2.71 µM | GI50 [36]: 2.6 µM | TGI [36]: 5.83 µM | GI50 [37]: 3.24 µM | TGI [37]: 17 µM | GI50 [38]: 5.25 µM | TGI [38]: 19.1 µM | GI50 [39]: 355 nM | TGI [39]: 899 nM | GI50 [40]: 1760 nM | TGI [40]: 3.19 µM | GI50 [41]: 737 nM | TGI [41]: 2.28 µM | GI50 [42]: 2120 nM | TGI [42]: 4.49 µM | GI50 [43]: 837 nM | TGI [43]: 2.16 µM | GI50 [44]: 0.64 µM | TGI [44]: 1.85 µM | GI50 [45]: 1.48 µM | TGI [45]: 3.34 µM | GI50 [46]: 1220 nM | TGI [46]: 2.59 µM | GI50 [47]: 3.27 µM | TGI [47]: 12.4 µM | GI50 [48]: 604 nM | TGI [48]: 2.61 µM | GI50 [49]: 3.81 µM | TGI [49]: 26.1 µM | GI50 [50]: 2350 nM | TGI [50]: 5.59 µM | GI50 [51]: 2860 nM | TGI [51]: 20.6 µM | GI50 [52]: 11.4 µM | TGI [52]: 29.2 µM | GI50 [53]: 1820 nM | TGI [53]: 6.04 µM | GI50 [54]: 1.97 µM | TGI [54]: 4.65 µM | GI50 [55]: 758 nM | TGI [55]: 2.27 µM

CCc1c2c(nc3ccc(OC(=O)N4CCC(N5CCCCC5)CC4)cc13)-c1cc3c(c(=O)n1C2)COC(=O)[C@]3(O)CC
GI50 [1]: 3020 nM | TGI [1]: 10.4 µM | GI50 [2]: 5.29 µM | TGI [2]: 19.9 µM | GI50 [3]: 8.58 µM | TGI [3]: 94.1 µM | GI50 [4]: 2110 nM | TGI [4]: 5.05 µM | GI50 [5]: 2.51 µM | TGI [5]: 13.4 µM | GI50 [6]: 3080 nM | TGI [6]: > 100000 nM | GI50 [8]: 2700 nM | TGI [8]: 21 µM | GI50 [9]: 2560 nM | TGI [9]: 9.11 µM | GI50 [10]: 13.5 µM | TGI [10]: 45 µM | GI50 [12]: 1840 nM | TGI [12]: 15.5 µM | GI50 [13]: 5.87 µM | TGI [13]: 24.1 µM | GI50 [14]: 1620 nM | TGI [14]: 3000 nM | GI50 [15]: 1570 nM | TGI [15]: 4.42 µM | GI50 [16]: 6.81 µM | TGI [16]: 43.9 µM | GI50 [17]: 1690 nM | TGI [17]: 17.4 µM | GI50 [18]: 6.08 µM | TGI [18]: 19.7 µM | GI50 [19]: 10.3 µM | TGI [19]: 29.1 µM | GI50 [20]: 3.12 µM | TGI [20]: 20.8 µM | GI50 [21]: 2.04 µM | TGI [21]: 10.7 µM | GI50 [23]: 4120 nM | TGI [23]: 26 µM | GI50 [24]: 10.7 µM | TGI [24]: 36.2 µM | GI50 [25]: 1300 nM | TGI [25]: 14.8 µM | GI50 [56]: 16.9 µM | TGI [56]: > 100 µM | GI50 [26]: 10.9 µM | TGI [26]: 25.7 µM | GI50 [27]: 731 nM | TGI [27]: 3010 nM | GI50 [28]: 153 nM | TGI [28]: 301 nM | GI50 [29]: 3430 nM | TGI [29]: 18.8 µM | GI50 [30]: 2710 nM | TGI [30]: 9.66 µM | GI50 [31]: 16 µM | TGI [31]: 42.3 µM | GI50 [32]: 4260 nM | TGI [32]: 24.5 µM | GI50 [33]: 1850 nM | TGI [33]: 16.7 µM | GI50 [35]: 1450 nM | TGI [35]: 14.2 µM | GI50 [36]: 21.5 µM | TGI [36]: 59.8 µM | GI50 [57]: 14.9 µM | TGI [57]: 34.7 µM | GI50 [37]: 4.03 µM | TGI [37]: 54.7 µM | GI50 [38]: 12.1 µM | TGI [38]: 66.5 µM | GI50 [40]: 767 nM | TGI [40]: 5.45 µM | GI50 [41]: 1070 nM | TGI [41]: 10.2 µM | GI50 [42]: 1890 nM | TGI [42]: 4.34 µM | GI50 [43]: 2080 nM | TGI [43]: 5.14 µM | GI50 [44]: 16.2 µM | TGI [44]: 40.3 µM | GI50 [45]: 7.12 µM | TGI [45]: 36.8 µM | GI50 [46]: 2280 nM | TGI [46]: 10.8 µM | GI50 [47]: 2.91 µM | TGI [47]: 16.4 µM | GI50 [48]: 2580 nM | TGI [48]: 7.58 µM | GI50 [49]: 4.15 µM | TGI [49]: > 100 µM | GI50 [50]: 2300 nM | TGI [50]: 8.61 µM | GI50 [58]: 150 nM | TGI [58]: 299 nM | GI50 [51]: 851 nM | TGI [51]: 18.1 µM | GI50 [59]: 3.53 µM | TGI [59]: 41 µM | GI50 [52]: 9.46 µM | TGI [52]: 38.7 µM | GI50 [53]: 2110 nM | TGI [53]: 11.8 µM | GI50 [54]: 7.82 µM | TGI [54]: 29.3 µM | GI50 [55]: 1210 nM | TGI [55]: 7.79 µM | GI50 [60]: 8.09 µM | TGI [60]: 41.2 µM
